The term melting point denotes the temperature of the solid-liquid transition.

Among the data in patent US20100261710A1, “HDAC Inhibitors” (ARQULE, INC., priority 2007, published 2010) are IC50 and melting point values, retold here.

The target in series [1] is T1, HDAC1 (Homo sapiens, UniProt Q13547).
T1 construct: cell extract containing HDAC (HeLa in these experiments); endogenous in cells; host or cells: HeLa cell extract
Put plainly: HDAC-1 immunocapture fluorescent biochemical assay (HeLa lysate). The conditions noted are these: HDAC1 immunocaptured from HeLa extract. On the procedure: The HDAC-1 assay represents a novel immunocapture assay procedure. […] The HDAC1 is captured on a protein A coated plate using HDAC1 specific antibody, and is then allowed to react with the substrate.
This assay in performed in four general steps. In the first step (FIG. 1A), cell extract containing HDAC (HeLa in these experiments) is incubated with (cell signaling) rabbit polyclonal HDAC1 antibody (rabbit IgG antibody is used for background control) to allow binding of the enzyme to the antibody. In the second step, the complexed mixture is added to the protein A covered plate which captures the antibody. In the third step, after washing away unbound proteins, substrate and inhibitor are added and deacetylation is allowed to occur. […] The plate is then read on either Victor or Perkin Elmer Envision system using Umbilliferone filter set.
• A. HeLa extract complexed with HDAC1 antibody working solution (in DPBS):
Compound working solution (in HDAC buffer):
Compounds diluted in assay buffer at 2× Screening concentration. • D. Activator solution:
Trypsin (10 mg/mL) diluted 1:1600 in assay buffer containing 4 μM TSA.
Complexing of extract with antibody was carried out at room temperature for 60 min with rocking. Binding of complexes onto protein A plate was carried out at room temperature for 60 min in 50 μL. Reaction was carried out in […], in the protein A plate for 60 minutes at 37° C. 40 μL of the reaction was moved into white ½ area plate for activation and reading.
• 1. Set PIERCE Protein A plate to block with 150 μof 5% BSA in TB ST for 60 min at room temperature. • 2. […] Dilute complexes further ([…]) by addition of 3.5 mL of PBS (final total volume of 5 mL). • 4. Wash blocked protein A plate prior to complex addition with TBST. • 5. Add 50 μl of diluted complexes to Protein A plate and incubate for 60 min at room temperature. • 6. Wash plate with TB ST. • 7. Add 25 μl of diluted compounds (in HDAC buffer) to each well and incubate for 10 min at room temperature. • 8. […] Move 40 μl of reaction to a white plate and add 20 μl of activator/developer solution, mix thoroughly. • 10. Read plate.

Series [2] concerns the target T2, HDAC2 (Homo sapiens, UniProt Q92769).
T2 construct: purchased BioMol
Put plainly: HDAC isoform assay, HDAC2. The format is biochemical. The conditions noted are these: substrate KI-177; read-out: HDAC2, IC50, ELISA (KI-177).

In series [3] the target is T3, HDAC3 (Homo sapiens, UniProt O15379).
T3 construct: purchased BioMol
T3 sequence (O15379 whole entry): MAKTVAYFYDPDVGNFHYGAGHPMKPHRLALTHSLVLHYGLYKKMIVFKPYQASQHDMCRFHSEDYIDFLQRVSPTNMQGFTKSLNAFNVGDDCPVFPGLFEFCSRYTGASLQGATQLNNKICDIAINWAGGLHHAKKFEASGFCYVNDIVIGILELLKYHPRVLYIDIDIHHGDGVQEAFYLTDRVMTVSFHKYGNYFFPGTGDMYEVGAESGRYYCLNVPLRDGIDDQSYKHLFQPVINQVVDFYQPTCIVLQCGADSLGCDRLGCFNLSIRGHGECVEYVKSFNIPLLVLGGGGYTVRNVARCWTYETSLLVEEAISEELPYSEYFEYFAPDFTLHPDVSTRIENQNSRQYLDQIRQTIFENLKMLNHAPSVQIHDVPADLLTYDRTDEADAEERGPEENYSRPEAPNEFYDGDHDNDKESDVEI
T3 sequence (O75376 395-489 partner limits assumed): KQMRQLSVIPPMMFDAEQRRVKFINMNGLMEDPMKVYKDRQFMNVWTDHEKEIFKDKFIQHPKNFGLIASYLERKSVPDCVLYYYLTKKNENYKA
Description: HDAC isoform assay, HDAC3. It is filed as biochemical. The conditions noted are these: substrate KI-177; read-out: HDAC3, IC50, ELISA (KI-177). In general terms: In an ELISA, binding on a coated surface is turned into a signal by an enzyme label.
Description: The assay measures the ability of a small molecule to inhibit deacetylation of the substrate. Activator reagent recognizes the substrate only if the lysine has been deacetylated.
This homogeneous assay in performed in the same well without washing steps. The HDAC source, nuclear HeLa extract, is incubated with substrate in the presence of an inhibitor compound. At the end of the reaction time, activator solution, containing Trypsin and TSA, is added to stop the deacetylation reaction, and cleave the amino-coumarin from the deacetylated substrate. The plate is then read on either a Perkin Elmer Victor or Envision system using Umbilliferone filter set. […] The signal is directly proportional to the activity of HDACs and compound inhibition of HDAC is monitored by a decrease in signal.

The target of series [4] is T4, HDAC4 (Homo sapiens, UniProt P56524).
T4 construct: purchased BioMol
T4 sequence (P56524 whole entry): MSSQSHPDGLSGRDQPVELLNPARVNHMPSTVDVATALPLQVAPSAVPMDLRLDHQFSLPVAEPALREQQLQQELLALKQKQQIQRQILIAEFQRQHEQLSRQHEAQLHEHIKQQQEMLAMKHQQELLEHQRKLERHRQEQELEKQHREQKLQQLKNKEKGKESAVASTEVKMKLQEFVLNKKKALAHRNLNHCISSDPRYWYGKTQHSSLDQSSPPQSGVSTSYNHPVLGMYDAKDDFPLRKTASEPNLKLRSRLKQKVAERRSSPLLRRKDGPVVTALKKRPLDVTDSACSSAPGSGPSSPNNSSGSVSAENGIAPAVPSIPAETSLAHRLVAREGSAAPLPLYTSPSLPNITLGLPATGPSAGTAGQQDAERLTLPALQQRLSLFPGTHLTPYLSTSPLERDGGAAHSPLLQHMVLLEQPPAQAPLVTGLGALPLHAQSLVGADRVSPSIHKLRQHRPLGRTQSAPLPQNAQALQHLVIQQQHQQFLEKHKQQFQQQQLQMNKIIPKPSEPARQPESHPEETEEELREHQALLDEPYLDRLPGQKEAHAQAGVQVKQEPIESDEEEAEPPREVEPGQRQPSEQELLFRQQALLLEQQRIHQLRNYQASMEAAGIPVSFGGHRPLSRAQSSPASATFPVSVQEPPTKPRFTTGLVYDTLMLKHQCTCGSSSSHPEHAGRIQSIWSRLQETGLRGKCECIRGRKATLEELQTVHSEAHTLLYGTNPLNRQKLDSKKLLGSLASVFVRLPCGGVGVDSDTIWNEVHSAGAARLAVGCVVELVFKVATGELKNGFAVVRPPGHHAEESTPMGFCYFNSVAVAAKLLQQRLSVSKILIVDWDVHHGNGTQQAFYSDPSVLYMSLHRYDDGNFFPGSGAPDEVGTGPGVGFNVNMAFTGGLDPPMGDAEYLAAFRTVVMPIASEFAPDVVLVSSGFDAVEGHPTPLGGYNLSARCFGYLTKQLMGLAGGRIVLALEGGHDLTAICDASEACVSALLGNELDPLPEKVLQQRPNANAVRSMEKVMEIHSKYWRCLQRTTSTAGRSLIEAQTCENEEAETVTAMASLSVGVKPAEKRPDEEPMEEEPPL
Put plainly: HDAC isoform assay, HDAC4. The format is biochemical. As to conditions: substrate KI-177; read-out: HDAC4, IC50, ELISA (KI-177).

The test system of series [5] is HDACs (nuclear HeLa extract). Description: pan-HDAC fluorescent biochemical assay with nuclear HeLa extract. As to conditions: HDAC peptide substrate, 60 min at 37° C. How it is done:
Substrate was synthesized in house. Stocks were prepared in DMSO (10 mM).
Compound working solution: Compounds dissolved in assay buffer at 4× Screening concentration. Activator solution: Trypsin (10 mg/mL) diluted 1:1600 in Assay Buffer containing 4 μM TSA.
Total reaction Volume: 40 μL
Reaction was allowed to run for 60 minutes at 37° C.
2. Combine in a white ½ area well plate: 10 μl of 4× compound (or buffer), 15 μl of substrate and 15 μl of HeLa extract. Mix well
3. Incubate at 37° C. for 60 min.
4. Prepare Activator solution. Dilute Trypsin 1:1600 in Assay Buffer+4μM TSA. 20 μl is needed per assay point.
5. Add 20 μl of prepared activator solution and mix thoroughly.
The hydroxamic-acid based compounds of the present invention were tested in the biochemical assay for their pan-HDAC inhibitory activity.

Series [6] concerns the target T5, HDAC6 (Homo sapiens, UniProt Q9UBN7).
T5 sequence (Q9UBN7 1-1215): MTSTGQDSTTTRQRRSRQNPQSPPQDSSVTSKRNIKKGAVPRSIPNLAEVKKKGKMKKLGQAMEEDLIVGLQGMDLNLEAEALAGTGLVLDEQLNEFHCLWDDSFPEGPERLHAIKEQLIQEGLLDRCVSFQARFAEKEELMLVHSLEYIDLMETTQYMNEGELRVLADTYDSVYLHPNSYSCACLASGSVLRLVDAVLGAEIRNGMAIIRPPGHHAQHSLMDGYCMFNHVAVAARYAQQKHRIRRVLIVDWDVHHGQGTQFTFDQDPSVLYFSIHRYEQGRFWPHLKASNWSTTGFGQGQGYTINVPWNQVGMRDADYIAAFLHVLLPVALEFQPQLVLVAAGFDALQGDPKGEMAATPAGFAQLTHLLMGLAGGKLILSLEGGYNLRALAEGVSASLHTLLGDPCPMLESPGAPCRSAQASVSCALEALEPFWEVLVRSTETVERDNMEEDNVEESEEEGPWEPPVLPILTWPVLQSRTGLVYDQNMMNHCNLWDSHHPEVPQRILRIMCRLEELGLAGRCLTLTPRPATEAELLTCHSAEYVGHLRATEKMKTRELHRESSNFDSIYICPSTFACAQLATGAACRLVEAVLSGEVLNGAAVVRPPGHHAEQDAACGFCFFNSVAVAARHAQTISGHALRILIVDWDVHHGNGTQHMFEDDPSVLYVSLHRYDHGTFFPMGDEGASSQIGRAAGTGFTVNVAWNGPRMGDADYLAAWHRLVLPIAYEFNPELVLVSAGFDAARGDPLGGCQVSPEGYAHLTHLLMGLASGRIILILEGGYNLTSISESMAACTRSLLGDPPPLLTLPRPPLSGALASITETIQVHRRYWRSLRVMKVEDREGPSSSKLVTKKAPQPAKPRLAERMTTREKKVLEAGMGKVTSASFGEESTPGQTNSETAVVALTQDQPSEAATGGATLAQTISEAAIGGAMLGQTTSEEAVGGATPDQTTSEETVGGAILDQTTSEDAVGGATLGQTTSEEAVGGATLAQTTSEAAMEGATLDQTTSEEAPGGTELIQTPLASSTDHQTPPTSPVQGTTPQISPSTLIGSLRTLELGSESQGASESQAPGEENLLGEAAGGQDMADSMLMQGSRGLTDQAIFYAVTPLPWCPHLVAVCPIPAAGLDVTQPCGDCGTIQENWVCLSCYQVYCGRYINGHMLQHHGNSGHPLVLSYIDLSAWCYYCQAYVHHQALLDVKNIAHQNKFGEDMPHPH
Put plainly: HDAC isoform assay, HDAC6.

In series [7] the target is T6, HDAC8 (Homo sapiens, UniProt Q9BY41).
T6 sequence (Q9BY41 1-377): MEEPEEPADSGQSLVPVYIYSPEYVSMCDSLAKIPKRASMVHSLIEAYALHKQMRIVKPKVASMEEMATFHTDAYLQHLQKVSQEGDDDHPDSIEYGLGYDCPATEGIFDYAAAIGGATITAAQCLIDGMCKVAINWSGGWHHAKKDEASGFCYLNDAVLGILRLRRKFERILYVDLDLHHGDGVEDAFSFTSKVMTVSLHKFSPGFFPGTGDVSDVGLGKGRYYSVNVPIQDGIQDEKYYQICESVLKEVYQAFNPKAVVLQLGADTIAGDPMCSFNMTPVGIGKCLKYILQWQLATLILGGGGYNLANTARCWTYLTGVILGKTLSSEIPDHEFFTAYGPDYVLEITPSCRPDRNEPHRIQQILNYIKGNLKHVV
Put plainly: HDAC isoform assay, HDAC8.

The target in series [8] is T7, HDAC9 (Homo sapiens, UniProt Q9UKV0).
T7 construct: purchased BioMol
T7 sequence (Q9UKV0 whole entry): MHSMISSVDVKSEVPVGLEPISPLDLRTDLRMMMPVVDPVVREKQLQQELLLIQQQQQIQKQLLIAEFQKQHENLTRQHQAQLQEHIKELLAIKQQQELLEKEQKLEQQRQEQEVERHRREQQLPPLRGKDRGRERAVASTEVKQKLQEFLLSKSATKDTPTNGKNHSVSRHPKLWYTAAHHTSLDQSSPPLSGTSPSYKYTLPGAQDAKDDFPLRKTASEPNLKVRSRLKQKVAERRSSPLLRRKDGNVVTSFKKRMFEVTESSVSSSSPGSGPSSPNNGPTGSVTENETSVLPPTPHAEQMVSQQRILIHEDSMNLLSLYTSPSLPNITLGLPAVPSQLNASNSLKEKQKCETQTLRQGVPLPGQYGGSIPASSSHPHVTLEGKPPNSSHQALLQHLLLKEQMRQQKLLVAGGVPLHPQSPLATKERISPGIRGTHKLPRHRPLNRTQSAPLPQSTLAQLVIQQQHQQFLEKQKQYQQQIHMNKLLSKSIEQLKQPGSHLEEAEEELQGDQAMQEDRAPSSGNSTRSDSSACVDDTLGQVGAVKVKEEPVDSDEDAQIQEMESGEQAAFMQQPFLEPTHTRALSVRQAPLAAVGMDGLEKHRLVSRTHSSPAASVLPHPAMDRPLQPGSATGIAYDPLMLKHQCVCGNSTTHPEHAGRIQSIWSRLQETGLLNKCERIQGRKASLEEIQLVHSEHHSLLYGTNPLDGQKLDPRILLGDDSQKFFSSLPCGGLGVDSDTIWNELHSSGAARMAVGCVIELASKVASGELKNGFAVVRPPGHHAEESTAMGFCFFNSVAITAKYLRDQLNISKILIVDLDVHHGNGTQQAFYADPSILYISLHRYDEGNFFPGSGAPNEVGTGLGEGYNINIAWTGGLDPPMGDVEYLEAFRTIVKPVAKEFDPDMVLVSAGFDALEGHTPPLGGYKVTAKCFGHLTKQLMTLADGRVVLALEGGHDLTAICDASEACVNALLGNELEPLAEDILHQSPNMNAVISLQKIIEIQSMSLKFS
Description: HDAC isoform assay, HDAC9. It is filed as biochemical.

For series [9], the system named is HCT-116 cells. Description: MTS cell viability assay, HCT-116. It is filed as cell-based. As to conditions: Homo sapiens; HCT-116, 72 hr; read-out: HCT-116, IG50, MTS. How it is done: (§1) The MTS cell viability assay was used to determine the potency of proliferation inhibitor with. MTS measures mitochondrial dehydrogenase activity and serves as surrogate readout for the number of viable cells.
(§2) For MTS assay, cells were plated in 96-well plates at 2000 cells per well and incubated in the presence of compounds for 72 hr. MTS was added to each well as instructed by manufacture (Promega) and plates were incubated for 4 h at 37° C. The absorbance of each well was measured at 490 nm using a microplate reader.
Background: Tetrazolium dyes change colour on reduction, which living cells bring about.

Series [10] has as its system HH cells. Put plainly: MTS cell viability assay, HH. The conditions noted are these: Homo sapiens, 72 hr, read-out: HH, IG50, MTS. The format is cell-based. How it is done: The MTS cell viability assay was used to determine the potency of proliferation inhibitor with. MTS measures mitochondrial dehydrogenase activity and serves as surrogate readout for the number of viable cells. The protocol described below is based upon the “CellTiter 96 Aqueous Non-Radioactive Cell Proliferation Assay” sold by Promega (Technical Bulletin No. 169).
as §2

Series [11] deals with Hut78 cells. Description: MTS cell viability assay, Hut78. The format is cell-based. As to conditions: Homo sapiens; Hut78, 72 hr; read-out: Hut78, IG50, MTS. On the procedure: as §1, §2
In series [12] the test system is MJ cells. Description: MTS cell viability assay, MJ. The conditions noted are these: 72 hr, read-out: MJ, IG50, MTS. It is filed as cell-based. On the procedure:
as §1, §2

The target of series [13] is HDAC5 (Homo sapiens, UniProt Q9UQL6). Put plainly: HDAC isoform assay, HDAC5.
Sequence of HDAC5 (Q9UQL6 whole entry, canonical isoform): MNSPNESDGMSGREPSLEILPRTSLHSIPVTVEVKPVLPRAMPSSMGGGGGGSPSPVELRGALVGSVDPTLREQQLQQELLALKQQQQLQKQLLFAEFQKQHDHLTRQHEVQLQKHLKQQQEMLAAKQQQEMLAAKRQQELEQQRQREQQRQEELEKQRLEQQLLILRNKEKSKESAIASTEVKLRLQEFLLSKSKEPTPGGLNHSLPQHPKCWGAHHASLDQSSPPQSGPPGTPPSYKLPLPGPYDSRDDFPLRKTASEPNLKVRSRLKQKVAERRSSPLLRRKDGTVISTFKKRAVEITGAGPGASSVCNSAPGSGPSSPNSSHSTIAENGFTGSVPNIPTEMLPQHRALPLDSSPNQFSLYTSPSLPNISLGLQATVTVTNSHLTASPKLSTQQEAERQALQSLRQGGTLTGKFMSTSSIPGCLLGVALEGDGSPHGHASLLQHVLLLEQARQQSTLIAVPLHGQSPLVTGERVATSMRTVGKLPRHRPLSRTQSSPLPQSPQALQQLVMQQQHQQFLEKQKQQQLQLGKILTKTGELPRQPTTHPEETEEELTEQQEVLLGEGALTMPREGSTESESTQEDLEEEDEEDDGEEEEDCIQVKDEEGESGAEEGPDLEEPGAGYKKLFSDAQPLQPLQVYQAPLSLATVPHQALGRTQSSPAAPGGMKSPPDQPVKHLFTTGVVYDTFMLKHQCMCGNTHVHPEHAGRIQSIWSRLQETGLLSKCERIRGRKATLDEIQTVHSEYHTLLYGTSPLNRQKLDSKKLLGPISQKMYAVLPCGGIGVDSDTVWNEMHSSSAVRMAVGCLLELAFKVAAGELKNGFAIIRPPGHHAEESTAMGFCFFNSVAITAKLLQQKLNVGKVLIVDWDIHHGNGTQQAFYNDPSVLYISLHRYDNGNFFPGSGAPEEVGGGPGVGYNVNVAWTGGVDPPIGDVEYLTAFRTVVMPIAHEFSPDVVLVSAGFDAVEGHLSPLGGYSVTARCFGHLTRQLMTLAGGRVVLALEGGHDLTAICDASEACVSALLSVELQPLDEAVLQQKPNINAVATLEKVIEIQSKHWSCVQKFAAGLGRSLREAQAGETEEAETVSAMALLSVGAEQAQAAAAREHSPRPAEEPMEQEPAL

T1 sequence (Q13547 whole entry): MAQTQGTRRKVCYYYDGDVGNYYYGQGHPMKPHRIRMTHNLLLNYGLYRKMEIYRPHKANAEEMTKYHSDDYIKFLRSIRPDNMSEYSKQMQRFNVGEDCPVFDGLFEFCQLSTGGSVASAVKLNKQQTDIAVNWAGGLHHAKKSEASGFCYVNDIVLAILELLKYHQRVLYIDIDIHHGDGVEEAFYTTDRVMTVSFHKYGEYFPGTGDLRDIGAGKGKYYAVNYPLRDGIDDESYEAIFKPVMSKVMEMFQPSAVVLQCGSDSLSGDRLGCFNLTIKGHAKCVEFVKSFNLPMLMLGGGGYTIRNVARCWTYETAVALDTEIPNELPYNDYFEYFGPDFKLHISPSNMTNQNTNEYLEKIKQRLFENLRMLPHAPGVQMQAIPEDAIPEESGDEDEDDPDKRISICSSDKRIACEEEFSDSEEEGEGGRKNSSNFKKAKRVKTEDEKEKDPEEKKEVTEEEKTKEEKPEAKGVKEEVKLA
T2 sequence (Q92769 whole entry): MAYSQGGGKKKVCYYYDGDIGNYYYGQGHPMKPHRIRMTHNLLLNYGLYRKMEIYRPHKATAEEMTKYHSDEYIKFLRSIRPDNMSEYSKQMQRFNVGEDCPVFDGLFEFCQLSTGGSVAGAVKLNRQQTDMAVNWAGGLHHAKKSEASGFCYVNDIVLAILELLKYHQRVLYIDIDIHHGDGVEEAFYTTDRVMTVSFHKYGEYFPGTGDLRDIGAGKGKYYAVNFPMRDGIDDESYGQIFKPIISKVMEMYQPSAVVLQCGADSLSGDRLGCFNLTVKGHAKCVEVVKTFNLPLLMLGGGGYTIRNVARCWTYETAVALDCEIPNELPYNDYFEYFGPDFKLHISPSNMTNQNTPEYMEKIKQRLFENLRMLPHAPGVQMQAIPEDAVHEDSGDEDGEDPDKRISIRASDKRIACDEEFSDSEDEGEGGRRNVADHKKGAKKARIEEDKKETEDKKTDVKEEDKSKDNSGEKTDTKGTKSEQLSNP

On to `CC(C)(C)OC(=O)N1CCn2cc(C(=O)NCc3ccc(C(=O)NO)cc3)c3cccc(c32)C1` [compound 15, tert-butyl 7-{[4-(hydroxycarbamoyl)benzyl]carbamoyl}-3,4-dihydro[1,4]diazepino[6,7,1-hi]indole-2(1H)-carboxylate], for which the IC50 was found to be 492 nM in series [1]; 10000 nM in series [2]; 518 nM in series [3]; 791 nM in series [4]; 505 nM in series [5]; 203 nM in series [6]. In series [7], this molecule gave an IC50 of 3450 nM.

`O=C(CCC1CCN(C(=O)c2cn3c4c(cccc24)CCC3)CC1)NO` [compound 18, 3-[1-(5,6-dihydro-4H-pyrrolo[3,2,1-ij]quinolin-1-ylcarbonyl)piperidin-4-yl]-N-hydroxypropanamide] had a melting point of 110 to 113 °C. The molecule further displayed an IC50 in series [1] of 35.7 nM. The IC50 in series [2] was 10000 nM. Besides, the IC50 in [3] worked out at 29.8 nM. Besides, the IC50 in [4] is 69.1 nM. For the same molecule, the IC50 in series [8] worked out at 535 nM. Also, the IC50 in [9] is 1140 nM. Further, the IC50 in series [10] came to 186 nM. Also, the IC50 in series [11] came to 987 nM. The IC50 in series [12] is 390 nM. This molecule displayed an IC50 in series [13] of 91.5 nM. The same molecule showed an IC50 in series [6] of 144 nM. Also, the IC50 in series [7] was determined as 4970 nM.
